Data set [1] has as its system MCF-7 human breast tumor cells. Put plainly: Effect on chemotherapeutic activity of DOX, MTT. The format is cell-based. The note with it: MCF-7 cells, compound 20 μM + DOX 1 μM, 24 h. On the procedure:
Next, cytotoxicity of the selected compounds was also tested in MCF-7 breast cancer cells to disconfirm that protective effects might antagonize the antitumor effects of doxorubicin.
Figure 4 Effects of derivatives 4i, 6a, 6d, 6e, 6k, and 6m on the chemotherapeutic activity of DOX in MCF-7 human breast tumor cells. Cells were co-treated with selected compounds at 20 μM and DOX (1 μM) for 24 h. Cell viability was measured by MTT assay. Results are reported as mean of cell viability ± SD (n = 3). ****p < 0.0001 vs DOX-treated cells.
(§1) Cell viability was assessed by conducting an MTT [3-(4,5-dimethylthiazol-2-yl)-2,5-diphenyltetrazolium bromide dye] assay. Briefly, J 774A.1, H9c2, and MCF7 cells were seeded in 96-well plates for 24 h. Then, cells were treated with DOX in the absence or presence of compounds. MTT (Sigma) reagent was added to the medium for 1 h at 37 °C. Then, the formazan was dissolved in dimethyl sulfoxide (DMSO, 100 μL). Absorbance was measured at 540 nm with a microplate reader (BMG Labtech).

The test system of data set [2] is J774 macrophages. Put plainly: MTT cell viability assay (cytotoxicity) in J774 macrophages. The data set is classed as cell-based, murine. The procedure:
(§2) The potential cytotoxicity of embelin (1) together with derivatives (4a–4m, 5a–5d, 6a–6m) was tested in cardiomyocytes and macrophages in order to ensure that compounds lack toxicity also in immune cells. Cell viability was determined by the MTT assay.[58] Four dihydroquinoline derivatives (4b, 4f, 4i, and 4m) and six quinoline compounds (6a, 6d, 6e, 6i, 6k, and 6m) maintained higher viable cell rates in both types of cells. IC50 values of these derivatives were higher than 40 μM and were selected for further analysis.
(§3) J774A.1 murine macrophage cells, H9c2 embryonic rat heart-derived cells, and MCF-7 breast cancer cells were purchased from American Type Cell Culture (ATCC, Manassas, VA, USA). Cells were cultured in Dulbecco’s modified Eagle medium with 10% fetal bovine serum and 1% penicillin/streptomycin (Lonza) and were maintained at 37 °C in a humidified incubator containing 5% CO2.
as §1

Data set [3] has as its system H9c2 cardiomyocytes. Put plainly: MTT cell viability assay (cytotoxicity) in H9c2 cardiomyocytes. The format is cell-based, rat. On the procedure: as §2, §3, §1
Data set [4] concerns ROS in H9c2 cells. Put plainly: Intracellular ROS levels, DCFH-DA assay. The data set is classed as cell-based, rat. The following applies: for ROS production on co-treatment with DOX: compound 20 μM + DOX 1 μM, 24 h, vs DOX-treated cells. The procedure:
Oxidative stress is produced by an imbalance between radical oxygen species (ROS) formation and endogenous antioxidant activation in reaction to cell injury, leading to myocardial toxicity. Accordingly, DOX-induced ROS production in the H9c2 cells was quantified with the DCFH-DA fluorogenic dye. […] No effects on ROS production were observed when compounds were incubated alone with cells. […] The inhibitory effects of embelin derivatives were similar to those induced by N-acetyl-cysteine (NAC), a well-known antioxidant.
Figure 5 Derivatives 4i, 6a, 6d, 6k, and 6m reduced ROS levels produced by DOX in H9c2 cells. Levels of ROS in H9c2 cells were measured fluorometrically after treatment with DOX (1 μM) alone or co-treatment with N-acetyl cysteine (NAC, 1 mM) or selected derivatives (20 μM) for 24 h, using the 2′,7′-dichlorfluorescein-diacetate (DCFH-DA) assay. Values are expressed as mean ± SD with respect to DOX-treated cells (n = 3). ****p < 0.0001 vs DOX-treated cells.
Intracellular ROS levels in H9c2 cells were evaluated by monitoring the oxidation of 2′,7′-dichlorfluorescein-diacetate (DCFH-DA) (Sigma) to fluorescent dichlorofluorescein. Cells were treated with DOX (1 μM) in the absence or presence of compounds or NAC as ROS inhibitor (1 mM) (Sigma). Then, cells were incubated with 10 μM DCFH-DA at 37 °C in the dark for 30 min. ROS level was fluorimetrically evaluated at 485/550 nm during 24 h.

Data set [5] in a line: MTT cell viability assay (cytotoxicity) in J774 macrophages. The format is cell-based, murine. The following applies: mouse. On the procedure: as §2, §3, §1
In general terms: Formazan colour is commonly taken as a measure of viable cells.

A short description of data set [6]: MTT cell viability assay (cytotoxicity) in H9c2 cardiomyocytes. The format is cell-based, rat. The following applies: rat, H9c2 cardiomyocytes, 24 h, MTT; for IC50 at 24 h: H9c2 cardiomyocytes (embryonic heart-derived cells), stated for both types of cells; for viability at 24 h, 10 µM / viability at 24 h, 20 µM: mean ± SD, n = 3. On the procedure:
as §2, §3, §1

Like-named read-outs stand apart in the source and are kept apart here. Marks after values point to notes of the source that are not given here.

What is called IC50 is the concentration that gives 50% inhibition. As to “2-Hydroxy-7-methoxy-9-(4-nitrophenyl)-3-undecylacridine-1,4-dione [Compound 6k]”, the “Effect on antitumor (chemotherapeutic) activity of DOX” value (“Effect on antitumor” below) in data set [1] was “without reducing DOX’s chemotherapeutic effect”. For the same molecule, in data set [2], the “Cell viability (%) J774 macrophages 10 μM” value was 81.9 ± 4.6 ^e %, the “Cell viability (%) J774 macrophages 20 μM” value is on record as 76.3 ± 5.3 ^e % and the IC50 is greater than 40 µM. Also, in data set [3], the “Cell viability (%) H9c2 cardiomyocytes 10 μM” value worked out at 99.2 ± 0.8%, the “Cell viability (%) H9c2 cardiomyocytes 20 μM” value is reported as 94.4 ± 6.3% and the IC50 was greater than 40 µM. The “ROS production on co-treatment with DOX” value in data set [4] is listed as “significantly inhibited ROS production”.
As usually defined, the viability is a per cent measure of how many cells are alive, often set against a control. A low value points to more harm to the cells. By melting point is commonly meant the temperature, or range, at which the solid turns liquid. Consider `CCCCCCCCCCCC1=C(O)C(=O)C2=C(Nc3ccccc3C2c2ccc(C)c(C)c2)C1=O` (stereo not shown) [Compound 4i, 2-Hydroxy-9-(3,4-dimethylphenyl)-3-undecyl-9,10-dihydroacridine-1,4-dione], for which the melting point is 106 to 108 °C. Also, the “Effect on antitumor” value in data set [1] is listed as “without reducing DOX’s chemotherapeutic effect”. In data set [5], the IC50 at 24 h was greater than 40 µM; the viability at 24 h, 10 µM worked out at 96.2 ± 6.8%; the viability at 24 h, 20 µM came out at 72.6 ± 1.7%. In data set [6], the IC50 at 24 h is greater than 40 µM; the viability at 24 h, 10 µM worked out at 84.3 ± 6.8%; the viability at 24 h, 20 µM came to 82.2 ± 6.2%. In data set [4], the “ROS production on co-treatment with DOX” value was “significantly inhibited ROS production”.
`CCCCCCCCCCCC1=C(O)C(=O)c2c(nc3ccccc3c2-c2ccc([N+](=O)[O-])cc2)C1=O` [Compound 6a, 2-Hydroxy-9-(4-nitrophenyl)-3-undecylacridine-1,4-dione]: the “Effect on antitumor” value in data set [1] is listed as “without reducing DOX’s chemotherapeutic effect”. Moreover, in data set [5], the IC50 at 24 h is greater than 40 µM; the viability at 24 h, 10 µM came to 96.3 ± 2.1%; the viability at 24 h, 20 µM was determined as 76.9 ± 2.8%. Also, in data set [6], the IC50 at 24 h was greater than 40 µM; the viability at 24 h, 10 µM is 97.6 ± 7%; the viability at 24 h, 20 µM worked out at 87.8 ± 6.9%. For the same molecule, the “ROS production on co-treatment with DOX” value in data set [4] is “significantly inhibited ROS production”.
For the molecule `CCCCCCCCCCCC1=C(O)C(=O)c2c(nc3ccccc3c2-c2ccc(Br)cc2)C1=O` [Compound 6d, 2-Hydroxy-9-(4-bromophenyl)-3-undecylacridine-1,4-dione], in data set [1], the “Effect on antitumor” value is recorded as “without reducing DOX’s chemotherapeutic effect”. In data set [5], the IC50 at 24 h is greater than 40 µM; the viability at 24 h, 10 µM amounted to 82.1 ± 3.7%; the viability at 24 h, 20 µM was found to be 74.5 ± 3.9%. Further, in data set [6], the IC50 at 24 h was greater than 40 µM; the viability at 24 h, 10 µM came to 99.4 ± 0.2%; the viability at 24 h, 20 µM came out at 99.3 ± 2.6%. Moreover, the “ROS production on co-treatment with DOX” value in data set [4] is “significantly inhibited ROS production”.
For `CCCCCCCCCCCC1=C(O)C(=O)c2c(nc3ccc(Br)cc3c2-c2ccc([N+](=O)[O-])cc2)C1=O` [Compound 6m, 7-Bromo-2-hydroxy-9-(4-nitrophenyl)-3-undecylacridine-1,4-dione], in data set [1], the “Effect on antitumor” value is “without reducing DOX’s chemotherapeutic effect”. Also, in data set [5], the IC50 at 24 h is greater than 40 µM; the viability at 24 h, 10 µM came out at 99.6 ± 4.6%; the viability at 24 h, 20 µM worked out at 86.4 ± 8.7%. Also, in data set [6], the IC50 at 24 h was greater than 40 µM; the viability at 24 h, 10 µM worked out at 89.8 ± 7.6%; the viability at 24 h, 20 µM was determined as 85.9 ± 8.2%. For the same molecule, the “ROS production on co-treatment with DOX” value in data set [4] was “significantly inhibited ROS production”.
As to `COc1cccc2c1C(=O)c1c(O)c3c(c(O)c1C2=O)C[C@@](O)(C(=O)CO)C[C@@H]3O[C@H]1C[C@H](N)[C@H](O)[C@H](C)O1` [DOX, Doxorubicin, reference compound], the IC50 in data set [3] (Rattus norvegicus, H9c2 cardiomyocytes, 24 h, MTT, read-out: IC50 (loss in cell viability, DOX-treated vs untreated cells)) worked out at 0.83 µM. The “Levels of ROS compared to untreated cells” value in data set [4] (DOX 1 μM alone) was “significantly increased the levels of ROS”.
